Inconclusive results are not listed. Calls of active or inactive are those of the source.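 Rule for the calls: active = valid dose-response fit whose half-maximal growth-inhibiting concentration is at or below a set limit above the top tested dose; inconclusive = flat fit with effect between 30 and 70%, or poor fit; inactive = half-maximal concentration above a set limit.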

The nature of the first assay: antibacterial activity against Clostridioides difficile – 10-point retest, dose response (AID 1259246). The note with it: Clostridioides difficile clinical isolate growth, OD600, 24 h; at 60 µM (top of the series).
Turning to `COCC#Cc1ccc2c(c1)O[C@H](CN(C)Cc1ccc3c(c1)OCO3)[C@H](C)CN([C@H](C)CO)S2(=O)=O`, the activity change, negative = inhibition is 10.3% (inactive).
Still for that read-out and setting: as for `C[C@H]1CN([C@@H](C)CO)C(=O)c2cccc(NC(=O)Nc3ccc(C(F)(F)F)cc3)c2O[C@H]1CN(C)S(=O)(=O)c1ccc(Cl)cc1`, the figure is 28.2% (inactive); as for `O=C(C[C@H]1C[C@@H]2c3cc(NC(=O)C4CCC4)ccc3O[C@@H]2[C@@H](CO)O1)NCc1ccccc1`, 6.59% (inactive); as for `C[C@@H]1CN([C@H](C)CO)S(=O)(=O)c2ccc(/C=C/c3ccccc3)cc2O[C@H]1CN(C)C`, 5.46% (inactive).

Still in this assay, the particulars now being: Clostridioides difficile clinical isolate growth, OD600, 24 h; at 120 µM (top of the series).
For the compound `CC(C)NC(=O)N(C)C[C@@H]1OCCCC[C@H](C)Oc2ccc(NC(=O)Nc3cccc4ccccc34)cc2C(=O)N([C@H](C)CO)C[C@@H]1C`, the activity change, negative = inhibition is 60.5% (inactive).
On to `C[C@@H]1CN([C@@H](C)CO)C(=O)c2cccc(NC(=O)Nc3ccc4c(c3)OCO4)c2O[C@@H]1CN(C)C(=O)Nc1cccc2ccccc12`, for which the activity change, negative = inhibition was 6.09% (inactive).
Regarding `C[C@@H]1CN([C@@H](C)CO)C(=O)c2cccc(NC(=O)Nc3ccc(C(F)(F)F)cc3)c2O[C@@H]1CN(C)S(=O)(=O)c1ccc(Cl)cc1`, the activity change, negative = inhibition was 22.7% (inactive).
Still for that read-out and setting: the result for `O=C(O)C[C@H]1C[C@@H]2c3cc(NC(=O)NC4CCCC4)ccc3O[C@@H]2[C@@H](CO)O1` reads 2.6% (inactive); that for `C/C=C/c1ccc2c(c1)O[C@H](CN(C)CC1CCOCC1)[C@H](C)CN([C@H](C)CO)S2(=O)=O`, -5.69% (inactive).
On the same count and under the same terms, as for `C[C@H]1CN([C@@H](C)CO)C(=O)c2cccc(NC(=O)Nc3ccc(C(F)(F)F)cc3)c2O[C@H]1CN(C)S(=O)(=O)c1ccc(Cl)cc1`, the figure is 51.5% (inactive); as for `O=C(C[C@@H]1C[C@H]2c3cc(NC(=O)Nc4ccc(F)cc4)ccc3O[C@H]2[C@@H](CO)O1)NC1CCCCC1`, -2.82% (inactive).
The same measure, in the same setting: as for `O=C(C[C@H]1C[C@@H]2c3cc(NC(=O)NC4CCCC4)ccc3O[C@@H]2[C@@H](CO)O1)NCc1ccc2c(c1)OCO2`, the figure is -10.4% (inactive).
Regarding `COc1ccc(NC(=O)Nc2cccc3c2O[C@@H](CN(C)Cc2ccc(Oc4ccccc4)cc2)[C@H](C)CN([C@H](C)CO)C3=O)cc1`, the activity change, negative = inhibition was 16.6% (inactive).
The same measure, in the same setting: the result for `C[C@@H]1CN([C@@H](C)CO)S(=O)(=O)c2ccc(C#CC3CCCCC3)cc2O[C@@H]1CN(C)Cc1cccnc1` reads 13.1% (inactive); that for `O=C(N[C@H]1CC[C@H](CCNS(=O)(=O)c2ccc(Cl)cc2)O[C@H]1CO)c1cnccn1`, -7.94% (inactive); that for `Cc1ccc(S(=O)(=O)N[C@@H]2CC[C@H](CCNS(=O)(=O)Cc3ccccc3)O[C@@H]2CO)cc1`, -5.03% (inactive).
On the same count and under the same terms, the result for `C[C@@H]1CN([C@@H](C)CO)C(=O)Cc2cc(N(C)C)ccc2O[C@@H]1CN(C)Cc1ccc(Oc2ccccc2)cc1` reads 12.4% (inactive).

Staying with this assay, now noted: Clostridioides difficile clinical isolate growth, OD600, 24 h; at 135 µM (top of the series).
`C[C@@H]1CN([C@@H](C)CO)C(=O)Cc2cc(NC(=O)C3CC3)ccc2O[C@@H]1CN(C)Cc1ccc(Cl)c(Cl)c1`: the activity change, negative = inhibition is 16.4% (inactive).
`COc1ccccc1CNC(=O)C[C@H]1C[C@H]2c3cc(NC(=O)NC4CCCC4)ccc3O[C@H]2[C@@H](CO)O1`: the activity change, negative = inhibition is 4.17% (inactive).
On the same count and under the same terms, as for `CO[C@H]1CN(C)C(=O)c2cc(NC(=O)c3ccccc3)ccc2OC[C@H](C)NC[C@H]1C`, the figure is -3.19% (inactive); as for `C[C@@H]1CN([C@@H](C)CO)C(=O)Cc2cc(NC(=O)CCC(F)(F)F)ccc2O[C@H]1CN(C)Cc1ccc(Oc2ccccc2)cc1`, 8.79% (inactive).
On the same count and under the same terms, as for `O=C(C[C@H]1C[C@@H]2c3cc(NC(=O)C4CCC4)ccc3O[C@@H]2[C@H](CO)O1)NCc1ccc(Cl)cc1`, the figure is 4.22% (inactive).
Same read-out and setting: the result for `C[C@@H]1CN([C@H](C)CO)C(=O)c2cc(NC(=O)Nc3cccc4ccccc34)ccc2O[C@@H](C)CCCCO[C@H]1CN(C)S(=O)(=O)c1cn(C)cn1` reads 33.1% (inactive).
